Experimental data as given in patent US10806746B2, “Di- and tri-cationic glycosylated antitumor ether lipids, L-gucosylated gaels and rhamnose-linked gaels as cytotoxic agents against epithelial cancer cells and cancer stem cells” (The University of Manitoba, priority 2014, dated 2020).
Like-named read-outs stand apart in the source and are kept apart here.

Assays:
Format in all cases: cell-based, human
MDA-MB-231 cells = assay: MTS viability assay, MDA-MB-231 breast cancer cells
Description: (§1) FIG. 2A. Effects of compounds 1-11 on the viability of MDA-MB231 cells. MDA-MB-231 cells were cultured in DMEM medium supplemented with 10% FBS. Equal numbers were dispersed into 96-well plates. After 24 h, the cells were incubated with compounds 1-11 (0-30 μM) for 48 h. At the end of the incubation, MTS reagent (20% vol/vol) was added and the plates were incubated for 1-4 h. The OD490 was read with a plate reader. Wells with media but no cells were treated in similar fashion and the values utilized as blank. The results represent the mean±standard deviation of 6 independent determinations.
as §1, with “2K.” for “2A.”, “1, 69-72” for “1-11”, “MDA-MB-231” for “MDA-MB231”, “1, 69-72” for “1-11 (0-30 μM)”
(§2) The cell lines were cultured from frozen stocks originally obtained from ATCC. MDA-MB-231, JIMT-1, DU145, U81, U251 cells were grown in DMEM medium. BT474, A2780s, A2780cp cells were grown in DMEM/F12 medium supplemented with 10% FBS. MiaPaCa2 was cultured in DMEM supplemented with 10% FBS and 2.5% horse serum. PC3 cells were cultured in F12K medium supplemented with 10% FBS. All the media were supplemented with penicillin/streptomycin.
(§3) The effects of the GAELs on the viability of the various epithelial cancer cell lines was determined as previously described. Briefly, equal numbers of the cells were dispersed into 96-well plates. After 24 h, the cells were incubated with the compounds (0-30 μM) for 48 h. At the end of the incubation, MTS reagent (20% vol/vol) was added and the plates were incubated for 1-4 h. The OD490 was read with a plate reader. Wells with media but no cells were treated in similar fashion and the values utilized as blank. The results represent the mean±standard deviation of 6 independent determinations.

DU145 cells = assay: MTS viability assay, DU145 prostate cancer cells
Description: as §1, with “2D.” for “2A.”, “DU145” for “MDA-MB231”, “DU145” for “MDA-MB-231”
as §1, with “2H. Effect” for “2A. Effects”, “1, 69-72” for “1-11”, “DU145” for “MDA-MB231”, “DU145” for “MDA-MB-231”, “1, 69-72” for “1-11 (0-30 μM)”
as §2, §3

JIMT-1 cells = assay: MTS viability assay, JIMT-1 breast cancer cells
Description: as §1, with “2B.” for “2A.”, “JIMT-1” for “MDA-MB231”, “JIMT-1” for “MDA-MB-231”
as §1, with “2J.” for “2A.”, “1, 69-72” for “1-11”, “JIMT-1” for “MDA-MB231”, “JIMT-1” for “MDA-MB-231”, “1, 69-72” for “1-11 (0-30 μM)”
as §2, §3

MiaPaCa2 cells = assay: MTS viability assay, MiaPaCa2 pancreas cancer cells
Description: as §1, with “2F.” for “2A.”, “MiaPaCa2” for “MDA-MB231”, “MiaPaCa2” for “MDA-MB-231”, “FBS and 2.5% horse serum.” for “FBS.”
as §1, with “2I.” for “2A.”, “1, 69-72” for “1-11”, “MiaPaCa2” for “MDA-MB231”, “MiaPaCa2” for “MDA-MB-231”, “FBS and 2.5% horse serum.” for “FBS.”, “1, 69-72” for “1-11 (0-30 μM)”
as §2, §3

PC3 cells = assay: MTS viability assay, PC3 prostate cancer cells; settings: 48 h, MTS
Description: as §1, with “2E.” for “2A.”, “PC3” for “MDA-MB231”, “PC3” for “MDA-MB-231”, “F12K” for “DMEM”
as §2, §3

BT-474 cells = assay: MTS viability assay, BT-474 breast cancer cells; settings: 48 h, MTS
Description: as §1, with “2C.” for “2A.”, “BT-474” for “MDA-MB231”, “BT-474” for “MDA-MB-231”, “DMEM/F12” for “DMEM”
as §2, §3

[1] = Table 5, 48 h, read-out: CC50 MDA-MB-231
[2] = Table 5, 48 h, read-out: CC90 MDA-MB-231
[3] = Table 5, 48 h, read-out: CC50 DU-145
[4] = Table 5, 48 h, read-out: CC90 DU-145
[5] = Table 5, 48 h, read-out: CC50 JIMT1
[6] = Table 5, 48 h, read-out: CC90 JIMT1
[7] = Table 5, 48 h, read-out: CC50 Mlapaca2
[8] = Table 5, 48 h, read-out: CC90 Mlapaca2
[9] = Table 1A, 48 h, read-out: CC50 values MD 231
[10] = Table 1B, 48 h, read-out: CC90 values MD 231
[11] = Table 1A, 48 h, read-out: CC50 values DU 145
[12] = Table 1B, 48 h, read-out: CC90 values DU 145
[13] = Table 1A, 48 h, read-out: CC50 values JIMT1
[14] = Table 1B, 48 h, read-out: CC90 values JIMT1
[15] = Table 1A, 48 h, read-out: CC50 values MiaPaCa2
[16] = Table 1B, 48 h, read-out: CC90 values MiaPaCa2
[17] = Table 1A, read-out: CC50 values PC3
[18] = Table 1B, read-out: CC90 values PC3
[19] = Table 6, 48 h, read-out: MB-MDA-231 CC50
[20] = Table 6, 48 h, read-out: MB-MDA-231 CC90
[21] = Table 6, 48 h, read-out: DU145 CC50
[22] = Table 6, 48 h, read-out: DU145 CC90
[23] = Table 6, 48 h, read-out: JIMT1 CC50
[24] = Table 6, 48 h, read-out: JIMT1 CC90
[25] = Table 6, 48 h, read-out: MiaPaCa2 CC50
[26] = Table 6, 48 h, read-out: MiaPaCa2 CC90

CCCCCCCCCCCCCCCCOC[C@H](CO[C@@H]1O[C@@H](CN)[C@H](OCc2ccccc2)[C@@H](O)[C@@H]1N)OC [Compound 72, 1-O-Hexadecyl-2-O-methyl-3-O-(4′-benzyl-2′,6′-diamino-2′,6′-dideoxy-α-L-glucopyranosyl)-sn-glycerol] was tested, and the CC50 (MDA-MB-231 cells; [1]) was 4 µM, the CC90 (MDA-MB-231 cells; [2]) was 4.9 µM and the CC50 (DU145 cells; [3]) was 3.6 µM. It also gave a CC90 (DU145 cells; [4]) of 4.9 µM, a CC50 (JIMT-1 cells; [5]) of 2 µM and a CC90 (JIMT-1 cells; [6]) of 3.5 µM. For the same compound, the CC50 (MiaPaCa2 cells; [7]) was 4.5 µM and the CC90 (MiaPaCa2 cells; [8]) was 7 µM.

For CCCCCCCCCCCCCCCCOC[C@H](CO[C@H]1O[C@H](CN)[C@@H](O)[C@H](O)[C@H]1N1C(=O)c2ccccc2C1=O)OC [Compound 3, 1-O-Hexadecyl-2-O-methyl-3-O-(-2′-N-phthalimido-6′-amino-2′,6′-dideoxy-δ-D-glucopyranosyl)-sn-glycerol], the CC50 (MDA-MB-231 cells; [9]) was 20 µM, the CC90 (MDA-MB-231 cells; [10]) was over 30 µM and the CC50 (DU145 cells; [11]) was over 30 µM. It also gave a CC90 (DU145 cells; [12]) of over 30 µM, a CC50 (JIMT-1 cells; [13]) of over 30 µM and a CC90 (JIMT-1 cells; [14]) of over 30 µM. The CC50 (MiaPaCa2 cells; [15]) was over 30 µM, the CC90 (MiaPaCa2 cells; [16]) was over 30 µM and the CC50 (PC3 cells; [17]) was 15 µM. The CC90 (PC3 cells; [18]) was 30 µM.

CCCCCCCCCCCCCCCCOC[C@H](COC1O[C@H](CNCCCN)[C@@H](O)[C@H](O)[C@H]1N)OC (stereo partly shown) [Compound 74, 1-O-Hexadecyl-2-O-methyl-3-O-[6′-N-(3-aminopropyl)-2′,6′-diamino-2′,6′-dideoxy-glucopyranoside]-sn-glycerol] showed a CC50 (MDA-MB-231 cells; [19]) of 13.5 µM, a CC90 (MDA-MB-231 cells; [20]) of 19.5 µM and a CC50 (DU145 cells; [21]) of 16.5 µM. It also gave a CC90 (DU145 cells; [22]) of 20 µM, a CC50 (JIMT-1 cells; [23]) of 13.5 µM and a CC90 (JIMT-1 cells; [24]) of 18.5 µM. It also gave a CC50 (MiaPaCa2 cells; [25]) of 18.5 µM, a CC90 (MiaPaCa2 cells; [26]) of over 20 µM and a CC50 (PC3 cells; Table 6, read-out: PC3 CC50) of 12.5 µM. The CC90 (PC3 cells; Table 6, read-out: PC3 CC90) was 20 µM, the CC50 (BT-474 cells; Table 6, read-out: BT474 CC50) was over 20 µM and the CC90 (BT-474 cells; Table 6, read-out: BT474 CC90) was over 20 µM.

Work on CCCCCCCCCCCCCCCCOC[C@@H](CN)O[C@H]1O[C@H](CO)[C@@H](O)[C@H](O)[C@H]1N [Compound 7, 1-O-Hexadecyloxy-2R-(2′-amino-2′-deoxy-α-D-glucopyranosyl)-3-amino glycerol] yielded a CC50 (MDA-MB-231 cells; [9]) of 12 µM, a CC90 (MDA-MB-231 cells; [10]) of 17.5 µM and a CC50 (DU145 cells; [11]) of 17.5 µM. It also gave a CC90 (DU145 cells; [12]) of 25 µM, a CC50 (JIMT-1 cells; [13]) of 14 µM and a CC90 (JIMT-1 cells; [14]) of 19 µM. The CC50 (MiaPaCa2 cells; [15]) was 15 µM, the CC90 (MiaPaCa2 cells; [16]) was 28 µM and the CC50 (PC3 cells; [17]) was 9.5 µM. The CC90 (PC3 cells; [18]) was 17 µM, the CC50 (BT-474 cells; Table 1A, read-out: CC50 values BT474) was 25 µM and the CC90 (BT-474 cells; Table 1B, read-out: CC90 values BT474) was over 30 µM.

CCCCCCCCCCCCCCCCOC[C@H](CO[C@@H]1O[C@@H](CN)[C@H](O)[C@@H](O)[C@@H]1N)OC [Compound 71, 1-O-Hexadecyl-2-O-methyl-3-O-(2′,6′-diamino-2′,6′-dideoxy-α-L-glucopyranosyl)-sn-glycerol] showed a CC50 (MDA-MB-231 cells; [1]) of 5.5 µM, a CC90 (MDA-MB-231 cells; [2]) of 7.5 µM and a CC50 (DU145 cells; [3]) of 6 µM. The CC90 (DU145 cells; [4]) was 8 µM, the CC50 (JIMT-1 cells; [5]) was 4 µM and the CC90 (JIMT-1 cells; [6]) was 6.5 µM. For the same compound, the CC50 (MiaPaCa2 cells; [7]) was 6 µM and the CC90 (MiaPaCa2 cells; [8]) was 15 µM.

CCCCCCCCCCCCCCCCOC[C@H](COC1O[C@H](CN)[C@@H](O)[C@H](O)[C@H]1NCCCN)OC (stereo partly shown) [Compound 76, 1-O-Hexadecyl-2-O-methyl-3-O-[2′-N-(3-aminopropyl)-2′,6′-diamino-2′,6′-dideoxy-glucopyranoside]-sn-glycerol] was tested, and the CC50 (MDA-MB-231 cells; [19]) was 17.5 µM, the CC90 (MDA-MB-231 cells; [20]) was over 20 µM and the CC50 (DU145 cells; [21]) was 18.5 µM. For the same compound, the CC90 (DU145 cells; [22]) was over 20 µM, the CC50 (JIMT-1 cells; [23]) was 12.5 µM and the CC90 (JIMT-1 cells; [24]) was 16.5 µM. It also gave a CC50 (MiaPaCa2 cells; [25]) of 14.5 µM, a CC90 (MiaPaCa2 cells; [26]) of over 20 µM and a CC50 (PC3 cells; Table 6, read-out: PC3 CC50) of 14.5 µM. It also gave a CC90 (PC3 cells; Table 6, read-out: PC3 CC90) of over 20 µM, a CC50 (BT-474 cells; Table 6, read-out: BT474 CC50) of over 20 µM and a CC90 (BT-474 cells; Table 6, read-out: BT474 CC90) of over 20 µM.

Compound CCCCCCCCCCCCCCCCOC[C@H](CO[C@H]1O[C@@H](CN)[C@H](OCc2ccccc2)[C@@H](O)[C@@H]1N)OC [Compound 70, 1-O-Hexadecyl-2-O-methyl-3-O-(4′-benzyl-2′,6′-diamino-2′,6′-dideoxy-β-L-glucopyranosyl)-sn-glycerol] has a CC50 (MDA-MB-231 cells; [1]) of 4 µM, a CC90 (MDA-MB-231 cells; [2]) of 4.9 µM and a CC50 (DU145 cells; [3]) of 3.6 µM. It also gave a CC90 (DU145 cells; [4]) of 4.9 µM, a CC50 (JIMT-1 cells; [5]) of 2 µM and a CC90 (JIMT-1 cells; [6]) of 3.5 µM. For the same compound, the CC50 (MiaPaCa2 cells; [7]) was 5 µM and the CC90 (MiaPaCa2 cells; [8]) was 7.1 µM.
